Measurements as given in US8053415B2, “Compounds having RD targeting motifs” (Washington University in St. Louis, priority 2005, dated 2011).
“Also recorded” adds a separate entry of the source. Where two headings read alike, the source gives them in different places. Where a SMILES comes first, the peptide text is derived from it. Where no end group is shown, it is not given here. [ ]: non-standard residue; d: D form. The star is where a group is joined. Cypate = CC1(C)C(/C=C/C=C/C=C/C=C2/N(CCC(=O)*)c3ccc4ccccc4c3C2(C)C)=[N+](CCC(=O)O)c2ccc3ccccc3c21

Experiments:
[1] = target: T1, purified human αvβ3 integrin protein (Homo sapiens, UniProt P05106+P06756); assay: Competitive αvβ3 integrin receptor binding assay with 125I-echistatin tracer (Example 2)
T1 construct: purchased Chemicon International, Inc. (Temecula, Calif.)
Description: The binding affinities were measured based on the competitive binding between purified αvβ3 integrin (ABI) and peptide ligands. Echistatin is a polypeptide that binds irreversibly with high affinity and specificity to ABI. ^125I-echistatin was used as a tracer in ABI binding assays.
Receptor binding assays were performed by using purified human αvβ3 integrin protein from Chemicon International, Inc. (Temecula, Calif.). Assays were carried out using the Millipore Duropore membrane 96-well plates and the Millipore MultiScreen system (Bedford, Mass.). The 96-well membrane plate was blocked with 0.1% Polythylenimine blocking solution overnight at 4° C. ^125I-echistatin (50 nmol/L) was added to the binding buffer (50 mM Tris-HCl, pH 7.4, 100 mM NaCl, 2 mM CaCl2, 1 mM MgCl2, 1 mM MnCl2, 1% BSA) containing integrin protein (50 ng per well in 96-well membrane plate) and ligands in a total volume of 200 μL per well. The concentration range of ligand was between 0.01 μM and 100 μM. The mixtures were incubated for 2 h at room temperature, the ABI was then filtered by centrifugation at 1500 g and washed three times with 0.20 mL of ice-cold binding buffer. The filters containing radioactivity bound ABI were removed using a punch apparatus and counted using a Packard Cobra II Auto-gamma counter (Meriden, Conn.). […] Radiolabeling of ^125I-echistatin (Amersham Biosciences, Piscataway, N.J.) was carried out in a mixture of 0.25% BSA, 5.0% lactose, 0.21% citric acid and aprotinin (0.9 TIU/ml).

[2] = test system: A549 cells; assay: CyQuant cytotoxicity and proliferation assay; type: cell-based, human; settings: 48 hours
Description: Cells were seeded at 2.5×10^4 cells/well and grown in 96 well plates in the presence of 0−1.5×10^−5 M cypate conjugated peptides for 24 or 48 hours. Cell proliferation was measured using the CyQuant proliferation assay from Molecular Probes (Eugene, Oreg.) per the manufacturer's protocol. Briefly, after incubation the microplate was inverted to remove the media and frozen at −70° C. overnight. The microplate was thawed at room temperature and 200 μL of the CyQuant GR dye/cell-lysis buffer was added to each well. […]
Because the Cyquant assay is based on the adherence of a dye to nucleic acids, the assay is a measure of both proliferative and cytotoxic effects.

[3] = test system: A549 tumor; assay: In vivo fluorescence optical imaging and ex vivo organ distribution in A549 tumor-bearing nude mice; settings: for uptake / retention in A549 tumor: 0.3 μmol per kg via lateral tail vein, fluorescence imaging
Description: All in vivo studies were performed in compliance with the Washington University in St Louis Animal Study Committee's requirements for the care and use of laboratory animals in research. Nude mice (18-22 g) were anesthetized with xylazine/ketamine cocktail via intraperitoneal injection and placed in a supine position. The mice were injected subcutaneously with A549 cells (1×10^6) in the lower back of the mice. Tumor masses were palpable at 5-7 days post implant, which reached 5 mm in 10-15 days. Prior to injection of the probe, the mice were anesthetized as described above. A 29-gauge needle was used to inject the probes into the mouse via the lateral tail vein. The molecular probe (100 μL) was injected via the lateral tail vein at 0.3 μmol per kg of body weight. […] [SEQ ID NO:1] were constituted in a vial, and doses of 0.3 μmol per kg of body weight were injected into the A549 tumor-bearing mice.
A non-invasive in vivo continuous wave fluorescence imaging apparatus was used to visualize the distribution and preferential tissue uptake of the cypate-peptide molecular beacons in the nude mice (Achilefu (2004) Technol. Cancer Res. Treat. 3:393-409, incorporated herein by reference). Light from two laser diodes of nominal wavelength 780 nm and nominal power of 50 mW was launched into a fiber optic bundle. Two laser diodes were used to produce as much uniform illumination of the whole animal or organ parts as possible. The nominal 50 mW of incident power was reduced to about 44 mW at the output of the fiber optic bundle. A de-focusing lens in position after the bundle expanded the beam such that nearly the whole animal was illuminated. A Photometrics CCD camera (16 bit, 1024×1024 pixel, back illuminated, thermoelectric Peltier cooled with forced air) was used to capture the emitted photons. An interference filter (830 nm) was mounted in front of the CCD camera input lens such that only emitted fluorescent light from the contrast agent was imaged. Real-time acquisition, display and data processing software (WinView/32) was used to obtain the optical image. The samples were dissolved in 20% aqueous DMSO and animals were injected with doses of 0.3 μmol/kg body weight via the lateral tail vein. Injected volumes were 100 μL for each mouse. Data analysis consisted of subtracting (pixel by pixel) the pre-injection image from the post injection images, and displaying the false color results. Integration of the relative fluorescence intensities of tumor vs. surrounding tissues indicated the extent of selective uptake of the contrast agent. At the completion of the study, the mice were euthanized and some organ parts were excised and rinsed with water. The tissues were placed under the CCD camera and the fluorescence emission from each organ was measured after excitation with the 780 nm laser sources. Tissue parts, instead of whole organs, were used to minimize problems associated with depth-dependent non-linear fluorescence emission. A statistical program in the WinView package was used to estimate the mean fluorescence intensity per organ part.
In vivo optical imaging studies using the cypate-peptide optical probes were performed and analyzed as described above in Example 1. […]

[4] = Absorption and emission spectral properties in 20% aqueous DMSO; type: physicochemical
Description: The spectral properties of cypate and the cypate-peptide conjugates were determined in 20% aqueous DMSO, which solubilizes all the compounds. […] Absorbance measurements were performed with a Beckman Coulter DU 640 spectrophotometer. The fluorescence spectra were recorded on Fluorolog-3 fluorometer (HORIBA Jobin Yvon Inc., Edison, N.J.). To prepare the stock solutions, a high precision analytical balance was used to weigh >2 mg of each compound, which was dissolved in DMSO. The DMSO solutions were then diluted with water to obtain a final solution of 20% aqueous DMSO. An aliquot (known volume) of the solution was transferred to a cuvette with 1 μL precision micropipettes and diluted with 20% aqueous DMSO solvent mixture to give a working solution that absorbs at <1.0 absorbance unit. Aliquots of the working solution were diluted with 20% aqueous DMSO and used to determine the molar absorptivity of each compound. For fluorescence measurements, probe solutions with 0.1 absorbance units were used to minimize inner filter effects.
Previous studies have shown that this solvent mixture boosts fluorescence intensity and is well tolerated by rodents. Additionally, the dyes and their peptide conjugates are soluble in this solvent mixture, providing a common medium for spectral measurements.
Absorbance spectra were measured on a Beckman Coulter DU 640 UV-Visible spectrophotometer. Fluorescence spectra were recorded on a HORIBA Jobin Yvon Fluorolog-3 fluorometer. Stock solutions (1.0 mM) of the conjugates were prepared by dissolving each sample in 80% aqueous DMSO. UV-Vis and fluorescence measurements were carried out by adding 5.0 μL of the stock solutions via a micropipette into 3 mL of 20% aqueous DMSO in a quartz cuvette.

[5] = test system: A549 cells; assay: Cellular internalization and blocking studies by fluorescence microscopy (Example 1); settings: for internalization in A549 cells: 1 μM
[6] = test system: A549 tumor; design: species or system mice; settings: mouse, in vivo
Excerpt: The hypothesis that the “RD” motif was solely responsible for the tumor uptake was further tested by injecting ^111In-DOTA-GRD [SEQ ID NO:15] (120 μCi; 1 Ci=37 GBq) into A549 tumor-bearing mice.

[7] = Table 2, read-out: IC50 (αvβ3 integrin binding affinities)

Compound: CC(C)[C@@H]1NC(=O)[C@@H](Cc2ccccc2)NC(=O)[C@H](CC(=O)O)NC(=O)CNC(=O)[C@H](CCCNC(=N)N)NC(=O)[C@H](CCCCN)NC1=O [Cyclo(DPhe-Val-Lys-Arg-Gly-Asp)-OH] (HELM PEPTIDE1{R.G.D.[dF].V.K}$PEPTIDE1,PEPTIDE1,1:R1-6:R2$$$V2.0)
- IC50 ([1]; Table 3, read-out: IC50): 1.89 µM

Compound: CC(C)[C@@H]1NC(=O)[C@@H](Cc2ccccc2)NC(=O)[C@H](CC(=O)O)NC(=O)CNC(=O)[C@H](CCCNC(=N)N)NC(=O)[C@H](CCCCNC(=O)CCN2/C(=C/C=C/C=C/C=C/C3=[N+](CCC(=O)O)c4ccc5ccccc5c4C3(C)C)C(C)(C)c3c2ccc2ccccc32)NC1=O [Cyp-cyclo-RGD, Cypate-cyclo[RGDfVK^(Cypate)]] (cyclo(RGD[dF]VK(Cypate)))
- cytotoxicity (CyQuant), longer treatment [2]: some cytotoxicity
- uptake / retention in A549 tumor [3]: preferentially localized
- accumulation / retention in nontarget tissues ([3]; 24 h post injection): equally high
- retention in the tumor, cyclic versus linear Cyp-RGD ([3]; 24 h post injection): higher by a factor of three
- IC50 [1, 7]: 79.5 µM

Compound: CC1(C)C(/C=C/C=C/C=C/C=C2/N(CCC(=O)O)c3ccc4ccccc4c3C2(C)C)=[N+](CCC(=O)[O-])c2ccc3ccccc3c21 [Cypate, cypate, reference compound]
- uptake / retention in A549 tumor [3]: not retained in the tumor; also recorded: None of the three non-ABI-specific probes were retained in the A549 tumor tissue
- time of clearance from blood by the liver ([3]; after injection): ≤ 4 h
- ^abεmax [4]: 244,400 cm^−1Mol^−1
- ^abλmax [4]: 786 nm
- ^emλmax [4]: 811 nm
- internalization in A549 cells ([5]; 37° C.): did not internalize

Compound: CC1(C)C(=CC=CC=CC=CC2=[N+](CCC(=O)O)c3ccc4ccccc4c3C2(C)C)N(CCC(=O)N[C@H]2CSSC[C@@H](C(N)=O)NC(=O)[C@H](CC(=O)O)NC(=O)CNC(=O)[C@H](CCCNC(=N)N)NC2=O)c2ccc3ccccc3c21 [Cypate-cyclo(CRGDC)-NH2] (HELM PEPTIDE1{[CC1(C)C(/C=C/C=C/C=C/C=C2/N(CCC(=O)[*:2])c3ccc4ccccc4c3C2(C)C)=[N+](CCC(=O)O)c2ccc3ccccc3c21].C.R.G.D.C.[am]}$PEPTIDE1,PEPTIDE1,2:R3-6:R3$$$V2.0)
- IC50 [1, 7]: 4.6 µM

Compound: CC(C)[C@H](NC(=O)[C@@H](NC(=O)[C@@H]1CSSC[C@H](NC(=O)[C@H](N)Cc2ccccc2)C(=O)N[C@@H](Cc2ccc(O)cc2)C(=O)N[C@H](Cc2c[nH]c3ccccc23)C(=O)N[C@@H](CCCCN)C(=O)N[C@@H]([C@@H](C)O)C(=O)N1)[C@@H](C)O)C(=O)N[C@@H](CCCNC(=N)N)C(=O)NCC(=O)N[C@@H](CC(=O)O)C(N)=O [H-DPhe-Cyclo(Cys-Tyr-DTrp-Lys-Thr-Cys)-Thr-Val-Arg-Gly-Asp-NH2] (HELM PEPTIDE1{[dF].C.Y.[dW].K.T.C.T.V.R.G.D.[am]}$PEPTIDE1,PEPTIDE1,2:R3-7:R3$$$V2.0)
- IC50 ([1]; Table 3, read-out: IC50): 0.722 µM

Compound: N=C(N)NCCC[C@H](NC(=O)CNC(=O)CN1CCN(CC(=O)O)CCN(CC(=O)O)CCN(CC(=O)O)CC1)C(=O)N[C@@H](CC(=O)O)C(=O)N[C@@H](CO)C(=O)N1CCC[C@H]1C(=O)N[C@@H](CCCCN)C(=O)O [^111In-DOTA-GRD, metal not drawn] (HELM PEPTIDE1{[O=C(O)CN1CCN(CC(=O)O)CCN(CC(=O)[*:2])CCN(CC(=O)O)CC1].G.R.D.S.P.K}$$$$V2.0)
- clearance (scintigraphy) [6]: rapid renal clearance
- localization of the material [6]: nearly all of the material localized in the bladder

Compound: CC1(C)C(/C=C/C=C/C=C/C=C2\N(CCCCS(=O)(=O)O)c3ccc4ccccc4c3C2(C)C)=[N+](CCCCS(=O)(=O)[O-])c2ccc3ccccc3c21 [indocyanine green, reference compound]
- uptake / retention in A549 tumor [3]: None of the three non-ABI-specific probes were retained in the A549 tumor tissue

Compound: Cypate-3-GRDSPK ({Cypate‑3}-GRDSPK; listed as Homo sapiens) [Cyp-3-GRD]
- ^abεmax [4]: 128,538 cm^−1Mol^−1
- ^abλmax [4]: 684 nm
- ^emλmax [4]: 703 nm
- internalization in A549 cells ([5]; 37° C.): internalized
- cellular localization at 4° C. ([5]; A549 cells incubated at 4° C.): remained in the peripheral region of the cell membrane
- translocation into the nucleus ([5]; A549 cells, 37° C.): did not translocate into the nucleus

Compound: GRDSPK (listed as Homo sapiens) [GRD peptide]
- blocking of Cyp-GRD uptake in the tumor by co-injection ([3]; equimolar, 0.3 μmol/kg body weight, 24 h post injection): unable to block

Compound: cytate [reference compound]
- uptake / retention in A549 tumor [3]: None of the three non-ABI-specific probes were retained in the A549 tumor tissue
